Results taken from patent publication US11931428B2, “Selective hydrogen sulfide probe and uses thereof” (Wake Forest University Health Sciences, priority 2019, dated 2024).

Experiments:
HeLa cells = assay: Confocal fluorescence imaging of H2S in live HeLa cells; format: cell-based; conditions: for fluorescence in cells upon treatment with Na2S / fluorescence in cells, probe alone (no Na2S): HeLa, AL2 10 μM; for fluorescence in cells upon treatment with Na2S: 50 μM Na2S, AL1 12.5 μM, ex 405 nm, em 452 nm; for fluorescence in cells, probe alone (no Na2S): AL1 12.5 μM 45 min then washed
Description: FIG. 4. (A) Visualization of H2S in live HeLa cells with AL1 (12.5 μm). Imaging: ex: 405 nm, em: 452 nm. (a and b): No Na2S added (control); (c and d): Addition of Na2S (50 μm). Scale bar is set to 20 μm. (B) Visualization of H2S in live HeLa cells with AL4 (5 μm). Imaging: ex: 561 nm, em: 587 nm. (e and f): No Na2S added (control); g and h: Addition of Na2S (25 μM). Scale bar is set to 20 μm.
FIG. 5. Fluorescence images of live HeLa cells treated with AL2 (10 μM); (a and b): No Na2S (control); (c and d): Addition of Na2S (50 μM); (e and f): Fluorescence images of HeLa cells pretreated with biotin (2 mM) followed by treatments with AL2 (10 μM) and Na2S (50 μM). Imaging: ex: 405 nm, em: 452 nm. Scale bar is set to 20 μm.
Probe AL1 was also shown to be useful in imaging H2S in live cells using confocal microscopy. Cultured HeLa cells were incubated with AL1 (12.5 μM) for 45 min and then washed to remove any excess probe. […] Probe AL4 utilizes resorufin as its latent fluorescent reporter which has the added benefit of longer excitation and emission wavelengths, further boosting its potential in tissue imaging applications.
(§1) As a proof of concept we generated AL2, a cancer cell-specific H2S probe, by coupling biotin to its amine handle (Scheme 1). W. X. Ren et al, Chem. Commun. 2015, 51, 10403-10418; X. Song et al, RSC Adv. 2017, 7, 15817-15822; M. H. Lee et al, Chem. Soc. Rev. 2018, 47, 28-52. Fluorescence imaging experiments were then conducted using both a biotin positive (HeLa) and biotin negative (HEK293) cell line to confirm its selective targeting and delivery. […] To confirm that AL2 was targeting biotin cell surface receptors, in a separate experiment, HeLa cells were pre-treated with biotin prior to the addition of AL2. […] The selectivity of AL2 was further established using HEK293 (noncancerous human embryonic kidney) cells.

HEK293 cells = assay: Fluorescence imaging in live HEK293 cells (biotin negative); format: cell-based, human; conditions: AL2 10 μM, with or without Na2S 50 μM
Description: FIG. 6. Fluorescence images of live HEK293 cells. (a and b): Treatment with AL2 (10 μM) alone; (c and d): Treatment with AL2 (10 μM) followed by treatment with Na2S (50 μM). Imaging: ex: 405 nm, em: 452 nm. Scale bar is set to 20 μm.
as §1

[1] = Selectivity of fluorescence turn-on towards H2S versus biological thiols and nucleophiles in PBS buffer; conditions: probe 20 μM
Description: FIG. 1. Fluorescence response (λex: 330 nm) of probes (20 μM) in PBS buffer (pH 7.4), at room temperature, and in the presence of various biological thiols and nucleophiles: (1) PBS buffer alone; (2) 50 μM Na2S; (3) 100 μM cysteine; (4) 1 mM glutathione; (5) 100 μM serine; (6) 100 μM lysine; (7) 1 mM glutathione+50 μM Na2S. (A): Probe AL1 and (B): Probe AL3.
To assess our hypothesis, the selectivity of our design towards H2S was first assessed by incubating AL1 (20 μM) with various biological thiols and nucleophiles in PBS buffer (FIG. 1A). After reacting for 10 min at room temperature, the resulting turn-on response was gauged using fluorescence spectroscopy. The results from this assay were indeed stunning. In the presence of 50 μM Na2S (an H2S equivalent at physiological pH) a greater than 100-fold increase in relative fluorescence intensity was observed. […] Moreover, this assay confirmed that AL1 is not consumed by the presence of other thiols and that its reactivity towards H2S is retained in their presence (FIG. 1A, Column 7). To confirm that the gem-dimethyl group affords enhanced differentiation, we also generated AL3 which lacks the steric shield alpha to the ester carbonyl.

[2] = Stability in PBS buffer over a 24 h incubation period (fluorescence); format: physicochemical
Description: (§2) FIG. 2. Fluorescence response (λex: 330 nm) of probes (20 μM) at room temperature and under varying conditions: (A and B): (1): 24 hour incubation period in PBS buffer alone; (2): 24 hour incubation period in PBS buffer followed by the addition of Na2S (50 μM). (C and D): (1): 10 min incubation period in fetal bovine plasma alone; (2): 10 min incubation period in fetal bovine plasma and in the presence of Na2S (50 μM). AL1: 2A and 2C and AL3: 2B and 2D.
(§3) To further establish the increased durability of AL1 relative to AL3, we tested the stability of both compounds in PBS buffer over a 24 h incubation period (FIGS. 2A and 2B). […] The stability of AL1 and AL3 was also assessed in fetal bovine plasma (FIGS. 2C and 2D).

[3] = Stability in fetal bovine plasma (fluorescence); format: in vitro ADME; conditions: probe 20 μM
Description: as §2, §3

[4] = Time-dependent and concentration-dependent fluorescence sensing of H2S in PBS buffer; conditions: AL1 20 μM, Na2S 50 μM, PBS buffer pH 7.4, room temperature
Description: FIG. 3. (A) Time-dependent fluorescence emission (λex: 330 nm) of AL1 (20 μM) in the presence of Na2S (50 μM). (B) Fluorescence intensity (λex: 330 nm) of AL1 ([…]) in response to increasing Na2S concentrations.
The efficiency of AL1 in sensing H2S in PBS buffer (pH 7.4) and at room temperature was also assessed (FIG. 3A). Under these conditions, the resulting fluorescence intensity reached a maximum in less than two minutes, highlighting that our designed probe is not only selective but also highly reactive towards H2S—a necessary feature for detecting analytes which are short-lived. To determine if AL1 could also be used to detect H2S quantitatively in buffer, the resulting fluorescence was measured in response to a series of different concentrations of H2S (FIG. 3B). Indeed, the ensuing fluorescence intensity increased in a linear fashion in the range of 0-20 μM H2S and with a detection limit of 0.05 μM.

Row | Structure (SMILES) | fluorescence in cells pre-treated with biotin, after Na2S (HeLa cells; HeLa pretreated with biotin 2 mM, then AL2 10 μM and Na2S 50 μM) | fluorescence in cells upon treatment with Na2S (HeLa cells) | fluorescence in cells, probe alone (no Na2S) (HeLa cells) | fluorescence in cells, even upon addition of exogenous Na2S (HEK293 cells) | increase in relative fluorescence intensity ([1]; 50 μM Na2S, PBS buffer pH 7.4, 10 min, room temperature, λex 330 nm) | reactivity towards H2S in the presence of other thiols ([1]; 1 mM glutathione + 50 μM Na2S, PBS pH 7.4 (FIG. 1A, Column 7)) | selectivity: fluorescence in the presence of other biologically relevant thiols and nucleophiles ([1]; 100 μM cysteine, 1 mM glutathione, 100 μM serine, 100 μM lysine, PBS pH 7.4, 10 min, room temperature) | fluorescence on addition of Na2S after prolonged exposure to buffer ([2]; 24 h in PBS buffer, then Na2S 50 μM) | stability in PBS buffer alone ([2]; probe 20 μM, 24 h incubation, room temperature) | turn-on response in fetal bovine plasma when Na2S present ([3]; 10 min, Na2S 50 μM) | stability in fetal bovine plasma (fluorescence in the absence of Na2S) ([3]; 10 min incubation, room temperature) | time for fluorescence intensity to reach a maximum [4]
1 | CC(C)(C[Se]SCCNC(=O)CCCC[C@@H]1SC[C@@H]2NC(=O)N[C@@H]21)C(=O)Oc1ccc2ccc(=O)oc2c1 [AL2] | did not produce any fluorescence | strong blue fluorescent signal | minimal fluorescence | negligible fluorescence |  |  |  |  |  |  |  | 
2 | CC(=O)NCCS[Se]CC(C)(C)C(=O)Oc1ccc2ccc(=O)oc2c1 [AL1] |  | strong blue fluorescence | did not observe any fluorescent cells |  | greater than 100 fold | retained | no increase in fluorescence was detected | impressive turn-on fluorescence | superb stability | marked turn-on response | remarkable stability | less than two
